Reference: the NIST ThermoML archive (doi:10.1021/je1012857)
Numbers after ± are expanded uncertainties.

Conditions: 298.15 K, 101.33 kPa, Liquid; for viscosity: Capillary tube (Ostwald / Ubbelohde) method; for speed of sound: Sing-around technique in a fixed-path interferometer

SMILES	mass density	viscosity	speed of sound
CC(C)CO [2-methyl-1-propanol]	798.104 ± 1 kg/m3	3.307 ± 0.025 mPa·s	1188.8 ± 1.3 m/s
CCCCO [butan-1-ol]	805.953 ± 0.47 kg/m3	2.565 ± 0.016 mPa·s	1241.1 ± 1 m/s
NCCN [ethane-1,2-diamine]	892.389 ± 0.75 kg/m3	1.405 ± 0.012 mPa·s	1671.6 ± 1.4 m/s
CC(C)O [propan-2-ol]	781.051 ± 0.51 kg/m3	2.063 ± 0.013 mPa·s	1140.4 ± 0.9 m/s
